Experimental data from patent publication US20250304623A1, “PEPTIDES FOR INTRACELLULAR DELIVERY” (UNIVERSIDADE DE SANTIAGO DE COMPOSTELA, priority 2022, published 2025).
*: point of attachment. NHNH2 = NN*

Legend:
Type in all cases: cell-based
[1] = system: HepG2 cells expressing EGFP; assay: EGFP-targeting siRNA delivery (GFP silencing vs siMOCK), HepG2
Description: (§1) To generate an EGFP expressing HeLa cell line, HeLa cells were transfected with EGFP pDNA (pEGFP-C1, Clontech) and stable transfectants were selected with 400 μg/mL of G-418 (Millipore). Green clones were selected by epifluorescence microscopy and tested for EGFP expression stability through several passages. […] All other EGFP-expressing cell lines were obtained in a similar way from parent non-EGFP-expressing cell lines.
Cells expressing EGFP were seeded in a 96 well plate the day before the experiment at a concentration of 50,000 cell/mL (100 μL/w) in DMEM+10% FBS+1% Gln-Abt. For robotic library screening, the delivery of an EGFP-targeting siRNA (EGFP: enhanced green fluorescent protein, Ambion® Silencer® GFP Positive Control siRNA (siGFP) (AM4626)) in six different cell lines expressing EGFP was performed. […] The mixture was shaken for 30 min at room temperature (rt) before the addition to the cells. The cell medium was aspirated, and cells were washed twice with PBS. Finally, 50 μL of the solution of siRNA/amphiphile complexes were added to the cells and incubated for 4 h. After transfection, the medium was replaced by 100 μL of fresh DMEM supplemented with 10% FBS. The fluorescence knockdown was quantified after 72 h in a plate reader, by comparison with cells transfected with a non-targeting siRNA control (siMOCK, Silencer™ Negative Control No. 1 siRNA (siMOCK) (AM4611)). EGFP knockdown was compared with Lipofectamine® RNAiMAX silencing efficiency (30-60% depending on cell line, defined with a numeric value in the below tables). All experiments were done in triplicate.
(§2) Tables 1-7: RLuc (pDNA) or EGFP (mRNA) expression levels were normalized to Lipofectamine reagents (value=1) and expressed as fold-times signal increase. In the case of siRNA, the siRNA treated cells fluorescence was compared with siMOCK control fluorescence, while Cas9-RNP mediated knockout was measured against the fluorescence of untreated cells. In both siRNA and Cas9-RNP, values are expressed as % fluorescence reduction. Amphiphile concentration was 5 μM in all cases. All experiments were performed in triplicate.
Tables 20-25 show the mean (triplicates) percentage of GFP-silencing, accounted by fluorescence intensity decrease relative to a non-targeting siRNA (siMOCK) control, measured after the transfection of siRNA by different amphiphiles at different concentrations in a variety of cell lines. Background values, accounted by untreated control cells, were subtracted for processing.

[2] = system: Hela cells expressing EGFP; assay: Cas9-RNP delivery against EGFP (gene editing, plate reader), HeLa; conditions: for % GFP silencing due to gene editing (Cas9-RNP): HeLa
Description: as §1
(§3) Cells expressing EGFP were seeded in a 96 well plate the day before the experiment at a concentration of 50,000 cell/mL (100 μL/w) in DMEM+10% FBS+1% Gln-Abt. For robotic library screening, the delivery of Cas9-RNP against EGFP (RNP designed to knock-out the gene encoding for the enhanced green fluorescent protein (EGFP)) was performed. For RNP assembly, 9.2 μL of crRNA and 9.2 μL of tracrRNA were mixed in 211.6 μL of Nuclease-Free Duplex Buffer (IDT), incubated for 5 min at 95° C. and slowly cooled at rt (see I. Lostalé-Seijo, et al. Peptide/Cas9 nanostructures for ribonucleoprotein cell membrane transport and gene edition, Chem. Sci., 2017). Cas9 protein was dissolved in DMEM at a final concentration of 4 μM and equal volumes of the RNA complex and Cas9 were mixed and incubated for 5 min at rt. 75 μL of the corresponding amphiphile concentrations were added to 5 μL of RNP at 2 μM. The mixture was shaken for 30 min at room temperature before the addition to the cells. The cell medium was aspirated, and cells were washed twice with PBS. Cells were covered with 30 μL of DMEM and 20 μL of the RNP/amphiphile complexes were added to the cells (final peptide concentrations=2.5, 5 and 10 μM; final Cas9-RNP concentration=50 nM) and incubated for 4 h. After the incubation, the medium was replaced by 100 μL of fresh DMEM supplemented with 10% FBS. The total EGFP fluorescence was quantified after 72 h in a plate reader (FIG. 2, Table 1 (right) and Table 6). All experiments were done in triplicate.
as §2
(§4) Tables 26-31 show the mean (triplicates) percentage of gene editing, accounted by GFP fluorescence intensity decrease (% of reduction), measured after the transfection of Cas9-RNP by different amphiphiles at different concentrations in a variety of cell lines. Background values, accounted by untreated control cells, were subtracted for processing.

[3] = system: HCT116 cells expressing EGFP; assay: Cas9-RNP delivery against EGFP (gene editing, plate reader), HCT116
Description: as §1
as §3, with “triplicate. […]” for “triplicate.”
as §4

[4] = Petroselinyl, 10 μM, Hela cells
[5] = Petroselinyl, 15 μM, Hela cells

Row | Substance | percentage of GFP-silencing relative to siMOCK ([1]; Myristoleyl, 5 μM) [%] | percentage of GFP-silencing relative to siMOCK ([1]; Myristoleyl, 15 μM) [%] | percentage of GFP-silencing relative to siMOCK ([1]; Palmitoleyl, 15 μM) [%] | percentage of GFP-silencing relative to siMOCK ([1]; Petroselinyl, 15 μM) [%] | percentage of gene editing, GFP fluorescence intensity decrease (% of reduction) ([2]; Dodecanal, 5 μM, Hela cells) [%] | percentage of gene editing, GFP fluorescence intensity decrease (% of reduction) ([2]; Dodecanal, 10 μM, HeLa cells) [%] | percentage of gene editing, GFP fluorescence intensity decrease (% of reduction) ([2]; Dodecanal, 15 μM, Hela cells) [%] | percentage of gene editing, GFP fluorescence intensity decrease (% of reduction) ([2]; Myristoleyl, 5 μM, HeLa cells) [%] | percentage of gene editing, GFP fluorescence intensity decrease (% of reduction) ([2]; Myristoleyl, 15 μM, Hela cells) [%] | percentage of gene editing, GFP fluorescence intensity decrease (% of reduction) [2, 4] [%] | percentage of gene editing, GFP fluorescence intensity decrease (% of reduction) [2, 5] [%] | percentage of gene editing, GFP fluorescence intensity decrease (% of reduction) ([3]; Dodecanal, 5 μM) [%] | percentage of gene editing, GFP fluorescence intensity decrease (% of reduction) ([3]; Dodecanal, 10 μM) [%] | percentage of gene editing, GFP fluorescence intensity decrease (% of reduction) ([3]; Dodecanal, 15 μM) [%] | percentage of gene editing, GFP fluorescence intensity decrease (% of reduction) ([3]; Oleyl, 5 μM) [%] | percentage of gene editing, GFP fluorescence intensity decrease (% of reduction) ([3]; Palmitoleyl, 5 μM) [%] | percentage of gene editing, GFP fluorescence intensity decrease (% of reduction) ([3]; Palmitoleyl, 15 μM) [%] | other results
1 | Ac-RK*LRRK*LRK*-NH2 (Ac-RK(NHNH2)LRRK(NHNH2)LRK(NHNH2)-NH2; not fully specified; printed as Ac-RK*LRRK*LRK*-NH2; also: K*2,K*6,K*9: native or modified lysine (ε-amide to a linker)) [Peptide 9.3] | −11 | 6 | −2 | −3 | 25 | 61 | 80 | 14 | 81 | 49 | 77 | 7 | 1 | −8 | 24 | −21 | −38 | percentage of GFP-silencing relative to siMOCK ([1]; Oleyl, 10 μM): −9%; percentage of GFP-silencing relative to siMOCK ([1]; Palmitoleyl, 5 μM): −2%; % GFP silencing due to gene editing (Cas9-RNP) ([2]; 5 μM, Dod tail): 80%; % GFP silencing due to gene editing (Cas9-RNP) ([2]; 5 μM, Pal tail): 77%; percentage of gene editing, GFP fluorescence intensity decrease (% of reduction) ([2]; Oleyl, 5 μM, HeLa cells): 11%; percentage of gene editing, GFP fluorescence intensity decrease (% of reduction) ([2]; Oleyl, 10 μM, HeLa cells): 26%; percentage of gene editing, GFP fluorescence intensity decrease (% of reduction) ([2]; Palmitoleyl, 10 μM, HeLa cells): 44%; percentage of gene editing, GFP fluorescence intensity decrease (% of reduction) ([2]; Palmitoleyl, 15 μM, Hela cells): 77%; percentage of gene editing, GFP fluorescence intensity decrease (% of reduction) ([3]; Myristoleyl, 15 μM): −11%; percentage of gene editing, GFP fluorescence intensity decrease (% of reduction) ([3]; Oleyl, 10 μM): 14%; percentage of gene editing, GFP fluorescence intensity decrease (% of reduction) ([3]; Petroselinyl, 15 μM): 4%
2 | Ac-RK*LRRLLRK*-NH2 (Ac-RK(NHNH2)LRRLLRK(NHNH2)-NH2; not fully specified; printed as Ac-RK*LRRLLRK*-NH2; also: K*2,K*9: native or modified lysine (ε-amide to a linker)) [Peptide 9.2] | −22 | −22 |  |  | 6 | 14 | 47 | −12 | 52 |  |  | −34 | −15 | −22 |  |  |  | 
3 | Ac-RRHK*RLK*RRLK*RL-NH2 (Ac-RRHK(NHNH2)RLK(NHNH2)RRLK(NHNH2)RL-NH2; not fully specified; printed as Ac-RRHK*RLK*RRLK*RL-NH2; also: K*4,K*7,K*11: native or modified lysine (ε-amide to a linker)) [13(Leu-His)] |  |  | 25 | 6 |  |  |  | 16 |  | 74 | 81 | −28 | −5 |  | 7 | 4 | 0 | percentage of GFP-silencing relative to siMOCK ([1]; Dodecanal, 15 μM): 27%; percentage of GFP-silencing relative to siMOCK ([1]; Myristoleyl, 10 μM): −3%; percentage of GFP-silencing relative to siMOCK ([1]; Palmitoleyl, 10 μM): 12%; percentage of GFP-silencing relative to siMOCK ([1]; Petroselinyl, 10 μM): 25%; % GFP silencing due to gene editing (Cas9-RNP) ([2]; 5 μM, Myr tail): 73%; percentage of gene editing, GFP fluorescence intensity decrease (% of reduction) ([2]; Myristoleyl, 10 μM, HeLa cells): 73%; percentage of gene editing, GFP fluorescence intensity decrease (% of reduction) ([2]; Petroselinyl, 5 μM, HeLa cells): 39%; percentage of gene editing, GFP fluorescence intensity decrease (% of reduction) ([3]; Myristoleyl, 5 μM): 22%; percentage of gene editing, GFP fluorescence intensity decrease (% of reduction) ([3]; Myristoleyl, 10 μM): −105%; percentage of gene editing, GFP fluorescence intensity decrease (% of reduction) ([3]; Petroselinyl, 5 μM): 18%
